Assay results reported in patent US4835157A, “Thieno- and furopyrimidine-2,4-dione piperidine derivatives as serotonin antagonists and alpha adrenergic blocking agents” (Ortho Pharmaceutical Corporation, priority 1988, dated 1989).
Like-named read-outs stand apart in the source and are kept apart here.

How the values were obtained:
[1] = system: serotonin-induced platelet aggregation; experiment: Platelet Aggregation Assay (serotonin-induced); format: cell-based; conditions: human plasma, serotonin 5 μM
Procedure: Platelet Aggegation Assay
Human blood was collected into tubes containing sodium citrate. The plasma was separated by centrifugation and was used as the source of platelets. Serotonin (5 μM) was used as the agonist to induce platelet aggregation. A control aggregation curve (as measured by the decrease in absorbance in transmitted light) was obtained in the presence of serotonin and in the absence of test compound. The test compound was added to an identical sample in a cuvette for one minute before addition of serotonin to yield the experimental curve.

[2] = system: Serotonin-Induced Smooth Muscle Contractions (rabbit thoracic aorta); experiment: Inhibition of Serotonin-Induced Smooth Muscle Contractions (isolated thoracic aorta strips); format: cell-based; conditions: concentration shifting the serotonin dose curve 10x to the right, 10 min preincubation, read-out: 5-HT-Induced Smooth Muscle Contraction DR10
Procedure: Inhibition of Serotonin-Induced Smooth Muscle Contractions
The test objects of this Example were canines and rabbits. Rabbits were sacrificed by T-61 injection and the thoracic aorta was removed immediately. The aorta was placed in warmed, oxygenated Krebs-Henseleit buffer. After the tissue was cleaned, a 2-3 mm wide strip was cut helically from each aorta. A strip of approximately 5 cm was suspended in Krebs-Henseleit buffer at 37° C. in a 25 ml tissue bath and the tissues equilibrated at an initial resting tension of 4 g for 90-120 minutes. An initial serotonin dose curve, 0.01-10 μM was then done on each tissue, followed by a 60 minute washout and reequilibration. The test drug was then added for a 10 minute preincubation and another serotonin dose curve was done using 0.01-100 μM.
Results are expressed as DR10 values. This is the concentration of the compound required to shift the serotonin dose curve 10x to the right, i.e., the concentration of antagonist at which the concentration of serotonin required for 50% maximal contraction is increased ten-fold.

5HT1A receptor = biological target: T1, 5HT1A receptor (Rattus norvegicus, UniProt P19327); experiment: Brain Serotonin (5HT1A) radioreceptor Assay (3H-8-OH DPAT displacement, rat frontal cortex membranes); format: binding; conditions: for inhibition at 1 µM: read-out: Brain 5-HT1 Receptor % displaced (% inhibition)
T1 construct: Membrane fragments were prepared from prefrontal cortex; from tissue; host or cells: prefrontal/frontal cortex of female rats (about 150 g), membrane fragments
T1 sequence (P19327 1-422): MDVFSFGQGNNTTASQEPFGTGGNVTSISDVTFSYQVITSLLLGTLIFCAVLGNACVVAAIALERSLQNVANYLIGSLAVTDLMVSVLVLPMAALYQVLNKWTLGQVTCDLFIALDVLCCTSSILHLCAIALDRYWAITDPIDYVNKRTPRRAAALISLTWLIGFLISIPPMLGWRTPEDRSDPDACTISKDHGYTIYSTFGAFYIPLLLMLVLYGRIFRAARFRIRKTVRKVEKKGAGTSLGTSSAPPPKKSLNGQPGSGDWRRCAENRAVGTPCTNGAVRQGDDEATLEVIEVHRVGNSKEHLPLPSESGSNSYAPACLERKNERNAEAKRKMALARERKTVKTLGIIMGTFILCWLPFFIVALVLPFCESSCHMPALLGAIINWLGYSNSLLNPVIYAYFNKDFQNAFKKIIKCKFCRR
Procedure: Brain Serotonin (5HT1A) radioreceptor Assay
The text objects of this procedure were rat frontal cortex membranes. Membrane fragments were prepared from prefrontal cortex disected from brains obtained from female rats (≈150 g). The 5HT1A sites were labeled with ^3 H-8-OH dipropylaminotetralin (8-OH-DPAT). Membrane fragments, ^3 H-8-OH DPAT, TRIS buffer (pH 7.4) and unlabeled compound were incubated for 10 minutes at 37° C. and then for 10 minutes at 4° C. Separation of bound from unbound ^3 H-8-OH DPAT was performed by vacuum filtration on a glass fiber disc. The ability of a compound to compete with ^3 H-8-OH DPAT for binding sites is a measure of the affinity of the compound for the 5HT1A receptor. Specific binding was determined by the difference between total counts bound and the counts bound in the presence of […] 5-hydroxytryptamine.

5HT2 [3] = biological target: T2, 5HT2 (Rattus norvegicus, UniProt P14842); experiment: Brain Serotonin (5-HT2) Radioreceptor Assay (3H-ketanserin displacement, rat frontal cortex membranes); format: binding; set-up: dissected from brains obtained from female rats; from tissue; host or cells: frontal cortex of female rats (about 150 g), membrane fragments; conditions: 15 min at 37° C
Procedure: Brain Serotonin (5-HT2) Radioreceptor Assay
The test objects of this Example were rat frontal cortex membranes. Mebrane fragments were prepared from the frontal cortex dissected from brains obtained from female rats (≈150 g). […] Compound bound to the receptor site was separated from the remaining unbound compound by vacuum filtration. […] Specific binding was determined by the difference between total counts bound and counts bound in the presence of 10^-6 M methysergide.

[4] = system: alpha1 adrenergic receptor; experiment: Alpha1 Blockade in vivo (inhibition of phenylephrine pressor response); set-up: species or system spontaneously hypertensive rats (SHR); conditions: anesthetized, vagotomized SHR; i.v.
Procedure: The potency of these compounds as alpha1 adrenergic antagonists was determined using the following procedure: adult male spontaneously hypertensive rats (SHR) were anesthetized and bilaterally vagotomized. A carotid artery and jugular vein were cannulated for monitoring mean arterial blood pressure and drug administration, respectively. The percent inhibition of alpha1 adrenergic receptor activation was quantified by measuring pressor responses to phenylephrine before and after antagonist treatment. […] Compounds were tested to the limits of their solubility for intravenous administration.

serotonin receptors = experiment: Inhibition of 5-HTP-Induced Head Twitching; format: in vivo; conditions: male CD1 mice; for Inhibit. of 5-HTP-Head Twitch ED50: 5-HTP 160 mg/kg i.v. after one hour
Procedure: Inhibition of 5-HTP-Induced Head Twitching
This test detects compounds with antagonistic activity of serotonin receptors in vivo, and is a modified procedure of Corne, Pickering and Warner, Brit. J. Pharmacol. 20, 106 (1963). Groups of male CD1 mice were fasted overnight but allowed water ad libitum. They were deprived of water during the course of the experiment. The mice were weighed and treated orally or parenterally with the test compound in a dose volume of 10 ml/kg. Doses of test substance were calculated based upon the active compound. Substances for oral administration were dissolved or suspended in a 0.5% aqueous methylcellulose (15 centipoises) vehicle containing 4 ml of Tween 80/l.
A dose of 160 mg/kg of L-5-hydroxytryptophan (5-HTP) was administered i.v. in a dose volume of 5 ml/kg after one hour. The test mouse was restrained in a rodent restrainer that allowed the tail to extend out the back. The tail was then placed in tepid (but not scalding) water for approximately 10 seconds to soften the skin and dilate the tail vein. A 1 ml syringe and 25 gauge (5/8 inch) needle was used to administer the 5-HTP solution into one of the lateral tail veins.
A timer was started after dosing with 5-HTP to the first animal of the test group. […] A head twitch involves the head, neck and ears and has the appearance of an exaggerated pinal reflex. The number of head twitches for each individual vehicle-treated mouse were recorded to establish a historical baseline.
The active compounds in the test block the twitch response (the response rated all or none).

5HT2 [5] = biological target: T2, 5HT2; experiment: 5HT2 Blockade in vivo (antagonism of 5HT induced pressor responses); set-up: Spontaneously hypertensive rats were anesthetized with sodium pentobarbital; from tissue; host or cells: whole animal: anesthetized spontaneously hypertensive rats (vasculature); species or system spontaneously hypertensive rats; conditions: for ED50: rat, iv, read-out: 5-HT-Induced Pressor Response ED50; for 5-HT-Induced Pressor Response ED50: anesthetized SHR, 5HT 100 μg/kg i.v., cumulative doses of antagonist
Procedure: Antagonism of 5HT induced pressor responses was used to assess 5HT2 blockade in vivo. Spontaneously hypertensive rats were anesthetized with sodium pentobarbital (50 mg/kg, i.p.). The right carotid artery and vein were cannulated for pressure recording and drug injection, respectively. The trachea was cannulated, the rat placed on a respirator and ventilated with room air at 50-60 breaths/minute. Rats were pretreated with prazosin hydrochloride (1 mg/kg, i.v., blous) and pentolinium tartrate (5 mg/kg, i.v., bolus). After 10 minutes equilibration, the rat was challenged with 5HT (100 μg/kg) which elevates mean arterial pressure (MAP) 60-100 mmHg; non-responsive rats were discarded.
After a baseline had been reestablished, bolus injections of 5HT (100 μg/kg, i.v.) were given and the MAP responses were evaluated both pre- and post-drug administration. 5HT challenges were repeated 10 minutes after each dose of antagonist. Up to three cumulative doses of the antagonist were given to a single animal.

[6] = system: Spontaneously Hypertensive Rats (SHR); experiment: Antihypertensive Activity in Spontaneously Hypertensive Rats (SHR); format: in vivo, rat; conditions: @ 5 mg/kg p.o., 4 h monitoring
Procedure: Antihypertensive Activity in Spontaneously Hypertensive Rats (SHR)
Antihypertensive activity was assessed using the following procedure. Adult male SHR were surgically prepared with arterial cannuli under light ether anesthesia and given 60-90 minute post-surgical recovery. Mean arterial pressure (MAP) was continuously monitored via the arterial line. After baseline MAP was recorded, groups of 3-6 SHR received a single dose of drug or vehicle (0.5% methylcellulose) administered by gavage at doses of 1 to 5 mg/kg.MAP was monitored for four hours post-dosing.
Maximal changes in MAP were reported.

T2 sequence (P14842 whole entry, the tested form may be a part): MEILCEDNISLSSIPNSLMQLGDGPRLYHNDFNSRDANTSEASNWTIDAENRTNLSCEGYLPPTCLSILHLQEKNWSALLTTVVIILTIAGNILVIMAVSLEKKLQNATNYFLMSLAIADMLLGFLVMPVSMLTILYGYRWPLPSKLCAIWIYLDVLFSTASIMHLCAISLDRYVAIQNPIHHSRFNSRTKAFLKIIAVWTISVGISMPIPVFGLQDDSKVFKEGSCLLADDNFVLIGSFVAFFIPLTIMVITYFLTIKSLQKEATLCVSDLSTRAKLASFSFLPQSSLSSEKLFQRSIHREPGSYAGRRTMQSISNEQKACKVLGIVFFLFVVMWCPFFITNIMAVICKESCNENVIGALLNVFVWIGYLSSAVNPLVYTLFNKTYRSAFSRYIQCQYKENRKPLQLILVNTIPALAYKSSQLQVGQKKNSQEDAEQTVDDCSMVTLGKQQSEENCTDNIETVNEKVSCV

Structure (SMILES)	IC50 ([1]; Platelet) [nM]	IC (10-fold shift) ([2]; Oryctolagus cuniculus, 10 min) [µM]	inhibition at 1 µM (5HT1A receptor; 3H-8-OH DPAT) [%]	IC50 (5HT2 [3]) [nM]	Phenylephrine-Induced Pressor Response ED50 [4] [mg/kg]	Inhibit. of 5-HTP-Head Twitch (result in words) (serotonin receptors; @ 10 (mg/kg, p.o.))	ED50 (5HT2 [5]) [mg/kg]	IC50 [1] [nM]	IC (10-fold shift) [2] [nM]	Inhibit. of 5-HTP-Head Twitch ED50 (serotonin receptors)	5-HT-Induced Pressor Response ED50 (5HT2 [5]) [mg/kg]	Antihypertensive Activity, p.o., % AMAP (maximal change in mean arterial pressure) [6] [%]	IC50 (5HT1A receptor) [nM]	IC50 (5HT1A receptor; rat frontal cortex membranes, 3H-8-OH DPAT, pH 7.4, read-out: Brain 5-HT1 Receptor IC50) [nM]
O=c1[nH]c2cocc2c(=O)n1CCN1CCC(=C(c2ccc(F)cc2)c2ccc(F)cc2)CC1 [Example 9, 3-[2-[4-[Bis(4-fluorophenyl)methylene]piperidin-1-yl]ethyl]furo[3,4-d]pyrimidine-2,4-dione]	6250	0.01	12	4.2	> 10	Inact.	0.02							
Cc1nc2sccn2c(=O)c1CCN1CCC(=C(c2ccc(F)cc2)c2ccc(F)cc2)CC1 [Ritanserin, reference compound]					5.36			1200	1.0	0.32 mg/kg, p.o.	0.008			
O=C(c1ccc(F)cc1)C1CCN(CCn2c(=O)[nH]c3ccccc3c2=O)CC1 [Ketanserin, reference compound]	32				1.08					0.67 mg/kg, p.o.	0.013	-33	24500	
Cn1c(=O)n(CCN2CCC(C(=O)c3ccc(F)cc3)CC2)c(=O)c2cscc21 [Example 14, 3-[2-[4-(4-Fluorobenzoyl)piperidin-1-yl]ethyl]-1-methylthieno[3,4-d]pyrimidine-2,4-dione]	40		31	7	< 10		0.018			2.96 mg/kg, p.o.				
O=c1[nH]c2ccsc2c(=O)n1CCN1CCC(=C(c2ccc(F)cc2)c2ccc(F)cc2)CC1 [Example 5, 3-[2-[4-[Bis(4-fluorophenyl)methylene]piperidin-1-yl]ethyl]thieno[3,2-d]pyrimidine-2,4-dione]	1800	0.1	3	7	> 10		0.017			1.78 mg/kg, p.o.				
O=C(c1ccc(F)cc1)C1CCN(CCn2c(=O)[nH]c3cscc3c2=O)CC1 [Example 10, 3-[2-[4-(4-Fluorobenzoyl)piperidin-1-yl]ethyl]thieno[3,4-d]pyrimidine-2,4-dione]	20	0.00524		0.33	< 10		0.888			0.63 mg/kg, p.o.				12000
O=c1[nH]c2sccc2c(=O)n1CCN1CCC(=C(c2ccc(F)cc2)c2ccc(F)cc2)CC1 [Example 6, 3-[2-[4-[Bis(4-fluorophenyl)methylene]piperidin-1-yl]ethyl]thieno[2,3-d]pyrimidine-2,4-dione]	4500	0.00899	24	0.8	> 3		0.23					-13		
O=c1[nH]c2cscc2c(=O)n1CCN1CCC(=C(c2ccc(F)cc2)c2ccc(F)cc2)CC1 [Example 4, 3-[2-[4-[Bis(4-fluorophenyl)methylene]piperidin-1-yl]ethyl]thieno[3,4-d]pyrimidine-2,4-dione]	5300	0.0165	20	2.8	> 10		0.16			≈ 10 mg/kg, p.o.				
CC(=O)n1c(=O)n(CCN2CCC(C(=O)c3ccc(F)cc3)CC2)c(=O)c2cscc21 [Example 11, 1-Acetyl-3-[2-[4-(4-fluorobenzoyl)piperidin-1-yl]ethyl]thieno[3,4-d]pyrimidine-2,4-dione]	90		0	12.5	10.0		0.029							
